Entries after “also recorded” stand apart in the source; their conditions may differ.

One assay deals with PTN mRNA. The assay is described as follows: PTN mRNA expression after receptor antagonist / agonist. It counts as cell-based. Conditions: incubation with receptor antagonist. The text has this:
FIGS. 14A-F. TP-β regulation of pleiotrophin (PTN). […] (FIG. 14D) PTN mRNA reduction after PTXA2 treatment. The PTN mRNA levels are restored following the co-treatment with U46619. (FIG. 14E) shRNAi mediated knockdown of β-arrestin-2 reduced agonist dependent increase in PTN mRNA in HT-1376 cells (PTEN:wt), and UM-UC-3 cells (PTEN:minus). (FIG. 14F) Effect of U46619 on JNK1/2 and FOXO3a phosphorylation.

The next assay deals with SV-HUC cells. The assay is described as follows: Western blot of FAK and ERK phosphorylation in SV-HUC cells. It counts as cell-based, human. The following applies: SV-HUC cells (TP-α expressor), not transfected. On the procedure:
(§1) Tumor and normal bladder tissues were snap-frozen in liquid nitrogen within 30 minutes after the surgery. Frozen sections were stained with hematoxylin and eosin and samples identified that had at least 70% tumor cells were selected for further studies. Pulverized tissue powders were lysed in RIPA buffer (150 mM NaCl, 50 mM Tris-HCl [pH 8.0], 1% Triton X100, 0.1% SDS, 1% deoxycholate and protease inhibitor cocktail [Complete Protease Inhibitors, Roche]) for 15 minutes on ice. Equal amounts of total protein (40 μg) were resolved by 12% SDS-PAGE and subjected to Western blot analyses using ECL system (Amersham-Pharmacia). Screening Western blots for TP-α and TP-β isoform expression in bladder cancer cell lines was done using rabbit polyclonal antibodies against TP-α or TP-β (described above). SVHUC cells stably transfected with TP-α or TP-β plasmids were screened for PCNA, tubulin, GAPDH, FAK, pFAK, ERK, pERK protein (Santa Cruz) and ICAM-1 (Abcam).

The next assay concerns the target T1, TP-β (Homo sapiens, UniProt P21731).
T1 construct: expressed in transfected cells
The assay is described as follows: Phosphorylation of ERK and FAK in SV-HUC cells transfected with TP-β. It counts as cell-based. On the procedure:
FIG. 7. Effects of U46619 and PTXA2 on phosphorylation of ERK and FAK. SV-HUC cells transfected with pcDNA3, TP-α or TP-β data are representative of 3 experiments.
as §1
SV-HUC cells were grown to 80% confluence and transfected with 2 μg of pcDNA3 vector encoding either the TP-α or TP-β receptor isoforms. Transfection was performed in 6-well plates using the Fugene reagent (Roche) according to the manufacturer's instructions. After 72 hours post-transfection, cells were selected with 500 μg/ml G418 (Roche) and stable pools isolated after 14 days.

A further assay concerns T24 cells. Kind of assay: Western blot of FAK and ERK phosphorylation in T24 cells. It counts as cell-based, human. The following applies: serum starved 12 hrs, treated 1 hr. As for the experimental part: FIG. 6. Effect of TP receptor agonist (U46619) and antagonist (PTXA2) treatment on phosphorylation of FAK and ERK. T24 cells were serum starved for 12 hrs then treated with PTXA2 or U46619 for 1 hr. Tyrosine phosphorylation of FAK was assessed with western blot analysis on […] of cell lysate using anti-FAK pY397 (BD Bioscience) and pERK using a pERK specific antibody.
as §1
(In general: A western blot detects proteins with antibodies after separation by electrophoresis.)

T1 sequence (P21731 1-407 isoform P21731-2): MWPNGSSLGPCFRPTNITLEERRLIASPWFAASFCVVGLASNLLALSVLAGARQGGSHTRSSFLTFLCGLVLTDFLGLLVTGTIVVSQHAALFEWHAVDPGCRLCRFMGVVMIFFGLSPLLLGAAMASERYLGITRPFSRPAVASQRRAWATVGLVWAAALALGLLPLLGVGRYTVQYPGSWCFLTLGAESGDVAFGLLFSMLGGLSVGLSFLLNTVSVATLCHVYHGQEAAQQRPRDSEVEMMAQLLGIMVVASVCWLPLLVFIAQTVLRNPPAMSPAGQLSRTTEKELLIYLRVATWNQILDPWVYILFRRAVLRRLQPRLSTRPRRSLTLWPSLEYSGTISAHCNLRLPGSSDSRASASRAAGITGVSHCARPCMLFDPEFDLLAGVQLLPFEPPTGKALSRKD

Consider `CCCCC[C@@H](O)/C=C/[C@H]1C[C@H]2C[C@@H]([C@@H]1C/C=C\CCCC(=O)O)C2(C)C` [PTXA2], for which the “PTN mRNA expression” value with PTN mRNA is given as “reduced PTN mRNA expression”. For the same compound, the “phospho-ERK and phospho-FAK levels” value was “no effect” in the assay with SV-HUC cells and “reduction in the elevated basal levels; also recorded: significantly reduced” in the assay on T24 cells. The “U46619-stimulated increase in pERK1/2 and pFAK” value on TP-β (SV-HUC cells transfected with TP-β, antagonist added) was “blocked”. The “basal levels of pFAK and pERK” value at TP-β (TP-β transfected SV-HUC cells, data not shown) is recorded as “decreased the basal levels”.

These data come from patent US8551489B2, “Methods for the treatment of cancers” (MUSC Foundation for Research Development, priority 2008, dated 2013).
